Measurements published in PMC8815882, “Screening the pandemic response box identified benzimidazole carbamates, Olorofim and ravuconazole as promising drug candidates for the treatment of eumycetoma” (PLoS Neglected Tropical Diseases, 2022).
Read-outs that look alike come from different tables or passages of the source.

Tested on: M. mycetomatis genome strain MM55
Test: CLSI M38-A2 based in vitro susceptibility screening (XTT or resazurin), growth at fixed concentration
Assay type: cell-based, Madurella mycetomatis
Settings: Madurella mycetomatis; for Percent fungal survival at 100 µM: replicate 2, read-out: Percentage survival at 100um, 100 uM A (second replicate column)
[1] = 25 uM, mean of replicates, MM55, read-out: Percentage survival at 25um, 25 uM mean
[2] = 25 uM, replicate A, MM55, read-out: Percentage survival at 25um, 25 um A
[3] = 25 uM, replicate B, MM55, read-out: Percentage survival at 25um, 25 uM B
[4] = 25 uM, replicate C, MM55, read-out: Percentage survival at 25um, 25 uM C
[5] = mean of replicates, MM55, read-out: Percentage survival at 100um, 100 uM mean
[6] = replicate 1, MM55, read-out: Percentage survival at 100um, 100 uM A
[7] = replicate 2, MM55, read-out: Percentage survival at 100um, 100 uM A
[8] = replicate 3, MM55, read-out: Percentage survival at 100um, 100 uM A
[9] = 25 uM, mean of three replicates, read-out: Percentage survival at 25um, 25 uM mean
[10] = 25 uM, replicate A, read-out: Percentage survival at 25um, 25 um A
[11] = 25 uM, replicate B, read-out: Percentage survival at 25um, 25 uM B
[12] = 25 uM, replicate C, read-out: Percentage survival at 25um, 25 uM C
[13] = first replicate column, read-out: Percentage survival at 100um, 100 uM A
[14] = mean of three replicates, read-out: Percentage survival at 100um, 100 uM mean
[15] = second replicate column, read-out: Percentage survival at 100um, 100 uM A
[16] = third replicate column, read-out: Percentage survival at 100um, 100 uM A
[17] = replicate 1, read-out: Percentage survival at 100um, 100 uM A (first replicate column)
[18] = replicate 3, read-out: Percentage survival at 100um, 100 uM A (third replicate column)

Row | SMILES | activity at 25 µM [1] | activity at 25 µM [2] | activity at 25 µM [3] | activity at 25 µM [4] | activity at 100 µM [5] | activity at 100 µM [6] | activity at 100 µM [7] | activity at 100 µM [8] | activity at 25 µM [9] | activity at 25 µM [10] | activity at 25 µM [11] | activity at 25 µM [12] | activity at 100 µM [13] | activity at 100 µM [14] | activity at 100 µM [15] | activity at 100 µM [16] | further results
1 | Cc1nc(N(C)C(=O)Cc2ccc(-c3ccccn3)cc2)sc1S(N)(=O)=O [MMV1580486] | 82.6% | 102% | 96.5% | 49.6% | 83.5% | 93.3% | 93.6% | 63.7% | – | – | – | – | – | – | – | – | –
2 | C/C(=N\NC(=O)C1CC1c1ccccc1)c1ccc(NC(=O)c2ccco2)cc1 (stereo not drawn) [MMV1580487] | 83.7% | 79.1% | 93.7% | 78.4% | 85.2% | 91.2% | 88% | 76.5% | – | – | – | – | – | – | – | – | –
3 | CN(C)CCCNC(=O)c1ccc(-c2cc(O)c3ncccc3c2)cc1 [MMV1580488] | 54.3% | 72% | 76.2% | 14.8% | 9.5% | 10.5% | 5.72% | 12.3% | – | – | – | – | – | – | – | – | –
4 | CC[N+]1(C/C2=C/CCCCCC2)CCC(NC(=O)C2c3cc(Cl)ccc3Oc3ccc(Cl)cc32)CC1 (stereo not drawn) [MMV1580489] | – | – | – | – | – | – | – | – | 93.8% | 90.3% | 102% | 88.6% | -9.19% | -2.01% | -1.42% | 4.58% | –
5 | c1cnc(NCc2ccc(CNc3ncccn3)cc2)nc1 [MMV1580490] | 71% | 53.2% | 76.7% | 83.1% | 66.3% | 67.3% | 32.6% | 98.8% | – | – | – | – | – | – | – | – | –
6 | CCOC(=O)/C=C/[C@H](C[C@@H]1CCNC1=O)NC(=O)[C@@H](CC(=O)[C@@H](NC(=O)c1cc(C)on1)C(C)C)Cc1ccc(F)cc1 [MMV1580491] | – | – | – | – | – | – | – | – | 96.1% | 96.2% | 112% | 79.9% | – | 93.9% | – | – | activity at 100 µM [17]: 99.7%; Percent fungal survival at 100 µM: 86.7%; activity at 100 µM [18]: 95.4%
7 | O=C(/C=C\n1cnc(-c2cc(C(F)(F)F)cc(C(F)(F)F)c2)n1)NNc1ccccn1 [MMV1580493] | – | – | – | – | – | – | – | – | – | 79.7% | 83.9% | 40.3% | – | – | – | – | activity at 25 µM (25 uM, mean of replicates, read-out: Percentage survival at 25um, 25 uM mean): 67.9%; activity at 100 µM (mean of replicates, read-out: Percentage survival at 100um, 100 uM mean): 77.3%; activity at 100 µM [17]: 119%; Percent fungal survival at 100 µM: 80%; activity at 100 µM [18]: 32.4%
8 | CCC[C@H](NC(=O)[C@@H]1[C@H]2CCC[C@H]2CN1C(=O)[C@@H](NC(=O)[C@@H](NC(=O)c1cnccn1)C1CCCCC1)C(C)(C)C)C(=O)C(=O)NC1CC1 [MMV1580494] | 85.9% | 89.9% | 95.2% | 72.5% | 89.5% | 96.1% | 101% | 71.1% | – | – | – | – | – | – | – | – | –
9 | Nc1cnn(C2OC(CO)C(O)C2O)c(=O)n1 (stereo not drawn) [MMV1580495] | – | – | – | – | – | – | – | – | 87.3% | 82% | 95.9% | 84% | 88.8% | 82% | 84.2% | 72.9% | –
10 | NC(=S)N/N=C/c1ncccc1N [MMV1580496] | 67.8% | 65.1% | 79% | 59.3% | 44.6% | 65.1% | 56.6% | 12% | – | – | – | – | – | – | – | – | –
11 | CC(C)(C)NC(=O)N[C@H](C(=O)N1C[C@H]2[C@@H]([C@H]1C(=O)NC(CC1CCC1)C(=O)C(N)=O)C2(C)C)C(C)(C)C (stereo partly drawn) [MMV1580497] | – | – | – | – | – | – | – | – | 88.1% | 89.4% | 98% | 76.8% | 98.5% | 93.6% | 87.9% | 94.6% | –
12 | O=C(O)C[C@H]1CC[C@H](c2ccc(-c3ccc(Nc4ccc(C(F)(F)F)nc4)cn3)cc2)CC1 [MMV1580498] | 72.2% | 72.4% | 58.9% | 85.2% | 80.6% | 82.3% | 88.6% | 70.8% | – | – | – | – | – | – | – | – | –
13 | COc1ccc(NS(=O)(=O)c2ccc(Cl)s2)cn1 [MMV1580499] | – | – | – | – | – | – | – | – | 85% | 77.6% | 91.2% | 86.3% | 64.6% | 61.8% | 69.9% | 50.9% | –
14 | Cn1c2ccccc2c(=O)c2c(O)cccc21 [MMV1580500] | 65% | 63.1% | 67.8% | 64.2% | 58.6% | 66.8% | 57.2% | 51.8% | – | – | – | – | – | – | – | – | –
15 | CC1(C)CC(NC(=O)C(=O)Nc2ccc(Cl)cc2)CC(C)(C)N1 [MMV1580501] | 79.5% | 75.9% | 89.4% | 73.3% | 74.7% | 76.9% | 78.1% | 69% | – | – | – | – | – | – | – | – | –
16 | c1cc(CN2CCCNCCNCCCNCC2)ccc1CN1CCCNCCNCCCNCC1 [MMV1580502] | 91.1% | 89% | 97.4% | 86.9% | 83.6% | 86.9% | 83.7% | 80.2% | – | – | – | – | – | – | – | – | –
17 | CC(=O)N1c2ccccc2NC2=C(C(=O)CC(C)(C)C2)C1c1ccc(OCc2ccccc2)cc1 (stereo not drawn) [MMV1580503] | – | – | – | – | – | – | – | – | 100% | 99.4% | 107% | 94.6% | 99.3% | 97.8% | 113% | 80.9% | –
18 | Oc1ccc(NCc2ccccc2OCc2ccccc2)cc1 [MMV1580504] | – | – | – | – | – | – | – | – | 81.4% | 86.2% | 84.4% | 73.7% | – | 8.06% | – | – | activity at 100 µM [17]: 2.17%; Percent fungal survival at 100 µM: 4.7%; activity at 100 µM [18]: 17.3%
19 | O=C(Nc1ccc(N2CCN(C(=O)c3ccccc3)CC2)cc1)c1ccc2c(c1)OCO2 [MMV1580505] | 104% | 103% | 109% | 101% | 96.7% | 102% | 96.8% | 91.4% | – | – | – | – | – | – | – | – | –
20 | C[C@H](NC(=O)C(=O)Nc1ccccc1C(C)(C)C)C(=O)N[C@@H](CC(=O)O)C(=O)COc1c(F)c(F)cc(F)c1F [MMV1580794] | – | – | – | – | – | – | – | – | 43.5% | 71.1% | -10.5% | 70% | – | 70.9% | – | – | activity at 100 µM [17]: 64.2%; Percent fungal survival at 100 µM: 60.7%; activity at 100 µM [18]: 87.8%
21 | CC[C@@]1(O)C(=O)OCc2c1cc1n(c2=O)Cc2cc3c([N+](=O)[O-])cccc3nc2-1 [MMV1580796] | – | 95.3% | – | – | 86.8% | 97.1% | 84.7% | 78.6% | – | – | – | – | – | – | – | – | activity at 25 µM (read-out: Percentage survival at 25um, 25 uM B): 102%; activity at 25 µM (read-out: Percentage survival at 25um, 25 uM C): 81.7%; activity at 25 µM (read-out: Percentage survival at 25um, 25 uM mean): 93.1%
22 | OCCC#Cc1nc(-c2ccc(F)cc2)c(-c2ccncc2)n1CCCc1ccccc1 [MMV1580797] | – | – | – | – | – | – | – | – | 67.7% | 62% | 74.7% | 66.4% | 53.2% | 57.6% | 58.3% | 61.4% | –
23 | Cc1[nH]c2ccccc2c1CC(=O)N[C@@H](Cc1ccccc1)C(=O)N(C)c1ccccc1 [MMV1580798] | – | – | – | – | – | – | – | – | 85.4% | 85.6% | 92.9% | 77.6% | 87.3% | 82.4% | 79.6% | 80.5% | –
24 | COc1ccc(COc2cc3oc(=O)c4cc(C(C)O)ccc4c3cc2OC)cc1 (stereo not drawn) [MMV1580799] | – | – | – | – | – | – | – | – | 95.8% | 100% | 103% | 84.1% | 90.3% | 91.5% | 87.1% | 97% | –
